Test results from the supplement of paper PMC10307832.

Tests used:
Assay in all cases: relative viability (nuclei count vs DMSO), 5 days (fraction); higher = more cells survive
[1] = test system: NCI-H1944
In short: (§1)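 Medians of duplicate plates are given as relative viability. That measure is the nuclei count in treated wells divided by the count in vehicle wells. Counts were taken on 4× images of lung cancer cell lines in 1536-well plates, 5 days after pin-tool dosing the day after seeding with one drug alone or a fixed anchor-drug dose plus five library-drug doses (not always all listed) in √10 steps.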

[2] = test system: NCI-H460
In short: as §1

[3] = test system: NCI-H2405
In short: as §1

[4] = test system: ChaGo-K-1
In short: as §1

[5] = test system: NCI-H3122
In short: as §1

[6] = test system: RERF-LC-KJ
In short: as §1

[7] = test system: CAL-12T
In short: as §1

[8] = test system: NCI-H2087
In short: as §1

[9] = test system: NCI-H1651
In short: as §1

[10] = test system: NCI-H1755
In short: as §1

[11] = test system: ABC-1
In short: as §1

[12] = test system: UMC-11
In short: as §1

[13] = test system: LU99A
In short: as §1

[14] = test system: LOU-NH91
In short: as §1

[15] = test system: NCI-H1793
In short: as §1

[16] = test system: PC-3 [JPC-3]
In short: as §1

[17] = test system: LC-2-ad
In short: as §1

[18] = test system: NCI-H1395
In short: as §1

[19] = test system: NCI-H2170
In short: as §1

[20] = test system: NCI-H2228
In short: as §1

COc1cc2nccc(Oc3ccc(NC(=O)Nc4cc(C)on4)c(Cl)c3)c2cc1OC [Tivozanib] + CCNC(=O)c1noc(-c2cc(C(C)C)c(O)cc2O)c1-c1ccc(CN2CCOCC2)cc1 [Luminespib] (partner 0.01 µM)
relative viability ([1]; first compound 0.005 µM): 0.691 | relative viability ([1]; first compound 0.01581 µM): 0.83 | relative viability ([1]; first compound 0.05 µM): 0.732 | relative viability ([1]; first compound 0.1581 µM): 0.625 | relative viability ([1]; first compound 0.5 µM): 0.818 | relative viability ([2]; first compound 0.005 µM): 0.0252 | relative viability ([2]; first compound 0.01581 µM): 0.0365 | relative viability ([2]; first compound 0.05 µM): 0.0375 | relative viability ([2]; first compound 0.1581 µM): 0.0404 | relative viability ([2]; first compound 0.5 µM): 0.0362 | relative viability ([3]; first compound 0.005 µM): 0.644 | relative viability ([3]; first compound 0.01581 µM): 0.953 | relative viability ([3]; first compound 0.05 µM): 0.723 | relative viability ([3]; first compound 0.1581 µM): 0.684 | relative viability ([3]; first compound 0.5 µM): 0.54 | relative viability ([4]; first compound 0.005 µM): 0.622 | relative viability ([4]; first compound 0.01581 µM): 0.565 | relative viability ([4]; first compound 0.05 µM): 0.593 | relative viability ([4]; first compound 0.1581 µM): 0.497 | relative viability ([4]; first compound 0.5 µM): 0.502 | relative viability ([5]; first compound 0.005 µM): 0.0849 | relative viability ([5]; first compound 0.01581 µM): 0.104 | relative viability ([5]; first compound 0.05 µM): 0.0902 | relative viability ([5]; first compound 0.1581 µM): 0.0689 | relative viability ([5]; first compound 0.5 µM): 0.0976 | relative viability ([6]; first compound 0.005 µM): 1.16 | relative viability ([6]; first compound 0.01581 µM): 1.29 | relative viability ([6]; first compound 0.05 µM): 1.25 | relative viability ([6]; first compound 0.1581 µM): 1.25 | relative viability ([6]; first compound 0.5 µM): 1.14 | relative viability ([7]; first compound 0.005 µM): 0.253 | relative viability ([7]; first compound 0.01581 µM): 0.36 | relative viability ([7]; first compound 0.05 µM): 0.573 | relative viability ([7]; first compound 0.1581 µM): 0.276 | relative viability ([7]; first compound 0.5 µM): 0.594 | relative viability ([8]; first compound 0.005 µM): 0.135 | relative viability ([8]; first compound 0.01581 µM): 0.209 | relative viability ([8]; first compound 0.05 µM): 0.189 | relative viability ([8]; first compound 0.1581 µM): 0.148 | relative viability ([8]; first compound 0.5 µM): 0.147 | relative viability ([9]; first compound 0.005 µM): 0.86 | relative viability ([9]; first compound 0.01581 µM): 0.638 | relative viability ([9]; first compound 0.05 µM): 0.842 | relative viability ([9]; first compound 0.1581 µM): 0.883 | relative viability ([9]; first compound 0.5 µM): 0.931 | relative viability ([10]; first compound 0.005 µM): 0.466 | relative viability ([10]; first compound 0.01581 µM): 0.346 | relative viability ([10]; first compound 0.05 µM): 0.406 | relative viability ([10]; first compound 0.1581 µM): 0.329 | relative viability ([10]; first compound 0.5 µM): 0.453 | relative viability ([11]; first compound 0.005 µM): 0.692 | relative viability ([11]; first compound 0.05 µM): 0.429 | relative viability ([11]; first compound 0.1581 µM): 0.389 | relative viability ([11]; first compound 0.5 µM): 0.215 | relative viability ([12]; first compound 0.005 µM): 1.03 | relative viability ([12]; first compound 0.01581 µM): 0.975 | relative viability ([12]; first compound 0.05 µM): 1.03 | relative viability ([12]; first compound 0.5 µM): 1.06 | relative viability ([13]; first compound 0.005 µM): 0.206 | relative viability ([13]; first compound 0.01581 µM): 0.246 | relative viability ([13]; first compound 0.05 µM): 0.218 | relative viability ([13]; first compound 0.1581 µM): 0.203 | relative viability ([13]; first compound 0.5 µM): 0.274 | relative viability ([14]; first compound 0.005 µM): 0.334 | relative viability ([14]; first compound 0.01581 µM): 0.333 | relative viability ([14]; first compound 0.05 µM): 0.374 | relative viability ([14]; first compound 0.1581 µM): 0.33 | relative viability ([14]; first compound 0.5 µM): 0.35 | relative viability ([15]; first compound 0.005 µM): 0.154 | relative viability ([15]; first compound 0.01581 µM): 0.422 | relative viability ([15]; first compound 0.05 µM): 0.2 | relative viability ([15]; first compound 0.1581 µM): 0.141 | relative viability ([15]; first compound 0.5 µM): 0.237 | relative viability ([16]; first compound 0.005 µM): 0.744 | relative viability ([16]; first compound 0.01581 µM): 0.636 | relative viability ([16]; first compound 0.05 µM): 0.751 | relative viability ([16]; first compound 0.1581 µM): 0.716 | relative viability ([16]; first compound 0.5 µM): 0.766 | relative viability ([17]; first compound 0.005 µM): 1.03 | relative viability ([17]; first compound 0.01581 µM): 1.19 | relative viability ([17]; first compound 0.05 µM): 0.993 | relative viability ([17]; first compound 0.1581 µM): 0.945 | relative viability ([17]; first compound 0.5 µM): 0.879 | relative viability ([18]; first compound 0.005 µM): 0.654 | relative viability ([18]; first compound 0.01581 µM): 0.755 | relative viability ([18]; first compound 0.05 µM): 0.852 | relative viability ([18]; first compound 0.1581 µM): 0.706 | relative viability ([18]; first compound 0.5 µM): 0.688 | relative viability ([19]; first compound 0.005 µM): 0.711 | relative viability ([19]; first compound 0.01581 µM): 0.606 | relative viability ([19]; first compound 0.05 µM): 0.661 | relative viability ([19]; first compound 0.1581 µM): 0.304 | relative viability ([19]; first compound 0.5 µM): 0.907 | relative viability ([20]; first compound 0.005 µM): 0.0873 | relative viability ([20]; first compound 0.01581 µM): 0.219 | relative viability ([20]; first compound 0.05 µM): 0.112 | relative viability ([20]; first compound 0.1581 µM): 0.185 | relative viability ([20]; first compound 0.5 µM): 0.109
